Data taken from US11896591B2, “Compositions and methods for preparing and using mitochondrial uncouplers” (UNIVERSITY OF VIRGINIA PATENT FOUNDATION, priority 2017, dated 2024).
Entries after “also recorded” stand apart in the source; their conditions may differ.

Columns and labels:
whole cells = assay: Oxygen consumption rate (OCR) in whole cells, Seahorse XF-24 Flux Analyzer; format: cell-based; conditions: for EC50: binned EC50 values, increase in oxygen consumption rate in whole cells
Description: Biological activities of the compounds synthesized is determined by determining increase in oxygen consumption rate (OCR).
OCR is measured using a Seahorse XF-24 Flux Analyzer (Seahorse Biosciences, North Billerica, MA). NMuLi, C2C12, and L6 cells are seeded in a Seahorse 24-well tissue culture plate at a density of 3.5×10^4 cells/well, isolated cardiomyocytes at a density of 4×10^4 cells/well, and human primary fibroblasts at a density of 1.1×10^4 cells/well. The cells are then allowed to adhere for 24 h. […] Compounds are injected during the assay and OCR is measured using 2 min measurement periods.
2-3 wells are used per condition and averaged over three plates (n=6-9). Statistical significance is determined by two-way ANOVA with Bonferroni's posttest.

[1] = test system: STAM mouse model of fatty liver disease; assay: STAM mouse model of fatty liver disease (NALFD criteria: steatosis, inflammation, ballooning); format: in vivo
[2] = test system: Diet-induced Obesity Mouse Model; assay: Diet Induced Obesity Mouse Study; format: in vivo, Male C57B/6J mice
Description: Male C57B/6J mice aged 3 months (n=6) are assigned to one of three treatment groups: normal chow diet (Chow), western diet (WD) or western diet containing compound 4c (WD+4c). Mice fed WD and WD 4c are individually housed and given 3 grams of fresh food daily. WD+4c contained a dose of 4c equivalent to 50 mg/kg/day. For all treatments pre-weighed food is placed in cages and food intake is calculated daily. Fat and lean mass are measured by EchoMRI. Fat and lean mass for mice given the high fat Western Diet or the Western Diet with the compound 4c was determined by Echo MRI and shown in FIG. 6.

[3] = patients consuming ˜300 mg/d, over several months, without changes in food intake; cited from earlier work

| Structure (SMILES) | EC50 (whole cells) [µM] | other results |
| --- | --- | --- |
| Fc1cccc(Nc2nc3nonc3nc2Nc2ccccc2F)c1 [Compound 4c, N^5-(2-fluorophenyl)-N^6-(3-fluorophenyl)-[1,2,5]oxadiazolo[3,4-b]pyrazine-5,6-diamine] | < 5 | Oxygen consumption rate as a function of drug dose (whole cells; compared with BAM15 or FCCP (FIG. 1, FIG. 2)): higher oxygen consumption rate than mitochondrial uncouplers, BAM15 or FCCP; also recorded: consistently high oxygen consumption rate than the mitochondrial uncoupler BAM15; Anti-inflammatory effects ([1]; STAM mouse model (FIG. 3)): anti-inflammatory effects; Combined NALFD score ([1]; based on the steatosis, inflammation and ballooning assays, vs BAM15): significantly lower NALFD score than BAM15; Glucose tolerance test ([2]; WD + 50 mg/kg/day compound 4c vs WD): significantly improved glucose tolerance; Lean mass ([2]; WD + 4c 50 mg/kg/day vs WD, EchoMRI): without losing lean mass; also recorded: substantially the same lean mass; Food intake ([2]; WD + 4c vs WD): without a significant change in food intake; Fat mass ([2]; Western Diet (WD) + 4c 50 mg/kg/day vs WD, EchoMRI): gain less fat mass; also recorded: gained significantly less fat mass |
| O=[N+]([O-])c1ccc(O)c([N+](=O)[O-])c1 [DNP, 2,4-dinitrophenol] | – | Weight loss [3]: 1.5 pounds per week |
| c1ccc(Nc2nc3nonc3nc2Nc2ccccc2)cc1 [Compound 3ee, N^5,N^6-diphenyl-[1,2,5]oxadiazolo[3,4-b]pyrazine-5,6-diamine] | < 5 | – |
| CCNc1nc2nonc2nc1Nc1ccccc1F [Compound 7b, N^5-ethyl-N^6-(2-fluorophenyl)-[1,2,5]oxadiazolo[3,4-b]pyrazine-5,6-diamine] | 5 to 20 | – |
| Fc1cc(Nc2nc3nonc3nc2Nc2ccc(C(F)(F)F)c(F)c2)ccc1C(F)(F)F [Compound 3x, N^5,N^6-bis(3-fluoro-4-(trifluoromethyl)phenyl)-[1,2,5]oxadiazolo[3,4-b]pyrazine-5,6-diamine] | < 5 | – |
| Fc1cc(F)cc(Nc2nc3nonc3nc2Nc2cc(F)cc(F)c2)c1 [Compound 3cc, N^5,N^6-bis(3,5-difluorophenyl)-[1,2,5]oxadiazolo[3,4-b]pyrazine-5,6-diamine] | < 5 | – |
| Fc1ccccc1Nc1nc2nonc2nc1NC1CCCCC1 [Compound 7f, N^5-cyclohexyl-N^6-(2-fluorophenyl)-[1,2,5]oxadiazolo[3,4-b]pyrazine-5,6-diamine] | 5 to 20 | – |
| FC(F)(F)c1ccccc1Nc1nc2nonc2nc1Nc1ccccc1C(F)(F)F [Compound 3q, N^5,N^6-bis(2-(trifluoromethyl)phenyl)-[1,2,5]oxadiazolo[3,4-b]pyrazine-5,6-diamine] | < 5 | – |
| Fc1c(Nc2nc3nonc3nc2Nc2cccc(C(F)(F)F)c2F)cccc1C(F)(F)F [Compound 3aa, N^5,N^6-bis(2-fluoro-3-(trifluoromethyl)phenyl)-[1,2,5]oxadiazolo[3,4-b]pyrazine-5,6-diamine] | < 5 | – |
| FC(F)(F)c1ccc(Nc2nc3nonc3nc2Nc2ccc(C(F)(F)F)cc2)cc1 [Compound 3s, N^5,N^6-bis(4-(trifluoromethyl)phenyl)-[1,2,5]oxadiazolo[3,4-b]pyrazine-5,6-diamine] | < 5 | – |
| Cc1ccc(Nc2nc3nonc3nc2Nc2ccccc2F)cc1 [Compound 4i, N^5-(2-fluorophenyl)-N^6-(p-tolyl)-[1,2,5]oxadiazolo[3,4-b]pyrazine-5,6-diamine] | 5 to 20 | – |
| Cc1cccc(Nc2nc3nonc3nc2Nc2cccc(C)c2)c1 [Compound 3b, N^5,N^6-di-m-tolyl-[1,2,5]oxadiazolo[3,4-b]pyrazine-5,6-diamine] | < 5 | – |
| Fc1ccccc1Nc1nc2nonc2nc1Nc1cccc(OC(F)(F)F)c1 [Compound 4r, N^5-(2-fluorophenyl)-N^6-(3-(trifluoromethoxy)phenyl)-[1,2,5]oxadiazolo[3,4-b]pyrazine-5,6-diamine] | 5 to 20 | – |
| CNc1nc2nonc2nc1Nc1ccccc1F [Compound 7a, N^5-(2-fluorophenyl)-N^6-methyl-[1,2,5]oxadiazolo[3,4-b]pyrazine-5,6-diamine] | 5 to 20 | – |

Further lines, with some results ahead:

| EC50 (whole cells) [µM] | Structure (SMILES) | other results |
| --- | --- | --- |
| 5 to 20 | FC(F)(F)c1cc(Nc2nccnc2Nc2cc(C(F)(F)F)cc(C(F)(F)F)c2)cc(C(F)(F)F)c1 [Compound 16f, N^2,N^3-bis(3,5-bis(trifluoromethyl)phenyl)pyrazine-2,3-diamine] | – |
| > 20 | Cn1c(C(F)(F)F)nc2nc(Nc3ccccc3F)c(Nc3ccc(OC(F)(F)F)cc3)nc21 [Compound 13p, 1-Methyl-N^5-(2-fluorophenyl)-N^6-(4-(trifluoromethoxy)phenyl)-2-(trifluoromethyl)-imidazo[4,5-b]pyrazine-5,6-diamine] | – |
| 5 to 20 | Cn1c(C(F)(F)F)nc2nc(Nc3ccc(OC(F)(F)F)cc3)c(Nc3ccc(OC(F)(F)F)cc3)nc21 [Compound 13m, 1-Methyl-N^5,N^6-bis(4-(trifluoromethoxy)phenyl)-2-(trifluoromethyl)-imidazo[4,5-b]pyrazine-5,6-diamine] | – |
| 5 to 20 | FC(F)(F)Oc1ccc(Nc2nc3nc(C(F)(F)F)[nH]c3nc2Nc2ccc(OC(F)(F)F)cc2)cc1 [Compound 12m, N^5,N^6-bis(4-(trifluoromethoxy)phenyl)-2-(trifluoromethyl)-1H-imidazo[4,5-b]pyrazine-5,6-diamine] | – |
| 5 to 20 | Fc1cc(F)cc(Nc2nc3nc(C(F)(F)F)[nH]c3nc2Nc2cc(F)cc(F)c2)c1 [Compound 12i, N^5,N^6-bis(3,5-difluorophenyl)-2-(trifluoromethyl)-1H-imidazo[4,5-b]pyrazine-5,6-diamine] | – |
| 5 to 20 | Fc1cc(C(F)(F)F)ccc1Nc1nccnc1Nc1ccc(C(F)(F)F)cc1F [Compound 16h, N^2,N^3-bis(2-fluoro-4-(trifluoromethyl)phenyl)pyrazine-2,3-diamine] | – |
| 5 to 20 | Fc1ccc(C(F)(F)F)cc1Nc1nc2nc(C(F)(F)F)[nH]c2nc1Nc1cc(C(F)(F)F)ccc1F [Compound 12b, N^5,N^6-bis(2-fluoro-5-(trifluoromethyl)phenyl)-2-(trifluoromethyl)-1H-imidazo[4,5-b]pyrazine-5,6-diamine] | – |
| > 20 | Cc1ccc(Nc2nc3nc(C(F)(F)F)[nH]c3nc2Nc2ccc(C)cc2)cc1 [Compound 12k, N^5,N^6-di-p-tolyl-2-(trifluoromethyl)-1H-imidazo[4,5-b]pyrazine-5,6-diamine] | – |
| > 20 | Cn1c(C(F)(F)F)nc2nc(Nc3ccc(C(F)(F)F)c(F)c3)c(Nc3ccc(C(F)(F)F)c(F)c3)nc21 [Compound 13h, N^5,N^6-bis(3-fluoro-4-(trifluoromethyl)phenyl)-1-methyl-2-(trifluoromethyl)-imidazo[4,5-b]pyrazine-5,6-diamine] | – |
| > 20 | CCCNc1nc2[nH]c(C(F)(F)F)nc2nc1Nc1ccccc1F [Compound 12w, N^5-(2-fluorophenyl)-N^6-propyl-2-(trifluoromethyl)-1H-imidazo[4,5-b]pyrazine-5,6-diamine] | – |
| < 5 | Fc1ccccc1Nc1nc2nc(C(F)(F)F)[nH]c2nc1Nc1ccc(OC(F)(F)F)cc1 [Compound 12p, N^5-(2-fluorophenyl)-N^6-(4-(trifluoromethoxy)phenyl)-2-(trifluoromethyl)-1H-imidazo[4,5-b]pyrazine-5,6-diamine] | – |
| 5 to 20 | Fc1ccccc1Nc1nc2nc(C(F)(F)F)[nH]c2nc1Nc1cc(C(F)(F)F)cc(C(F)(F)F)c1 [Compound 12q, N^5-(2-fluorophenyl)-N^6-(3,5-bis(trifluoromethyl)phenyl)-2-(trifluoromethyl)-1H-imidazo[4,5-b]pyrazine-5,6-diamine] | – |
| > 20 | FC(F)(F)c1nc2nc(Nc3ccccc3)c(Nc3ccccc3)nc2[nH]1 [Compound 12l, N^5,N^6-diphenyl-2-(trifluoromethyl)-1H-imidazo[4,5-b]pyrazine-5,6-diamine] | – |
